Experimental data taken from patent US6706664B1, “Benzoxazole compounds, process for the preparation thereof and herbicides” (UBE Industries, Ltd., priority 1999, dated 2004).

How the values were obtained:
Design in all cases: key: 0: normal development; 1: Less damaged; 2: Slightly damaged; 3: Moderately damaged; 4: Severely damaged; 5: All killed
[1] = tested on: annual bluegrass; assay: Soil treatment test for upland field; type: in vivo, Poa annua; details: 500 g/ha, glass house 25° C., 3 weeks
Method in brief: (§1)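 Soil treatment, 500 g/ha, sprayed onto soil surface after sowing; alluvial Ube soil; 0.05% surfactant in diluent; glasshouse, avg 25° C, 3 wk; visual score 0–5 (5 = all killed).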

[2] = tested on: green foxtail; assay: Foliar spread test for upland field; type: in vivo, Setaria viridis; details: foliar spray 500 ppm, 3 weeks, rank vs non-treated
Method in brief: (§2)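 Scoring used a 0–5 scale, where 0 meant normal development and 5 meant all plants killed, assessed 3 weeks after treatment. Plants had been grown about 2 weeks from seed in volcanic ash soil before a uniform spray at 500 ppm containing 0.5% surfactant.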

[3] = tested on: common lambsquartes; assay: Foliar spread test for upland field; type: in vivo, Chenopodium album; details: foliar spray 500 ppm, 3 weeks, rank vs non-treated
Method in brief: as §2

[4] = tested on: common lambsquartes; assay: Soil treatment test for upland field; type: in vivo, Chenopodium album; details: 500 g/ha, glass house 25° C., 3 weeks
Method in brief: as §1

[5] = tested on: livid amaranth; assay: Soil treatment test for upland field; type: in vivo, Amaranthus lividus; details: 500 g/ha, glass house 25° C., 3 weeks
Method in brief: as §1

[6] = tested on: velvetleaf; assay: Soil treatment test for upland field; type: in vivo, Abutilon theophrasti; details: 500 g/ha, glass house 25° C., 3 weeks
Method in brief: as §1

[7] = tested on: blackgrass; assay: Soil treatment test for upland field; type: in vivo, Alopecurus aegualis; details: 500 g/ha, glass house 25° C., 3 weeks
Method in brief: as §1

[8] = tested on: barnyardgrass; assay: Soil treatment test for upland field; type: in vivo, Echinochloa crusgalli; details: 500 g/ha, glass house 25° C., 3 weeks
Method in brief: as §1

[9] = tested on: blackgrass; assay: Foliar spread test for upland field; type: in vivo, Alopecurus aegualis; details: foliar spray 500 ppm, 3 weeks, rank vs non-treated
Excerpt: (§3) (0: normal development, 1: Less damaged, 2: Slightly damaged, 3: Moderately damaged, 4: Severely damaged, 5: All killed).
(§4) Wagner pots, each having an area of 1/5000 are, were packed with volcanic ash soil and then each seed of corn, soybean, cotton, wheat, solgum, sugar beat, Large crabgrass, barnyardgrass, green foxtail, blackgrass, annual bluegrass, common lambsquartes, livid amaranth, velvetleaf and morning glory was planted, covered with soil and grown in a glass house at an average temperature of […] for about 2 weeks.
(§5) Each wettable powder of the desired compounds (I) shown in Table 1 prepared in accordance with Example 2 was diluted to 500 ppm with water containing a surfactant (0.5%) and then uniformly sprayed on the above respective plants.
(§6) After these plants were controlled in a glass house at an average temperature of 25° C. for 3 weeks, the herbicidal effects thereof were investigated.
(§7) The herbicidal effects were evaluated according to the evaluation method described in the above (1).

[10] = tested on: velvetleaf; assay: Foliar spread test for upland field; type: in vivo, Abutilon theophrasti; details: foliar spray 500 ppm, 3 weeks, rank vs non-treated
Method in brief: as §2

[11] = tested on: barnyardgrass; assay: Foliar spread test for upland field; type: in vivo, Echinochloa crusgalli; details: foliar spray 500 ppm, 3 weeks, rank vs non-treated
Excerpt: as §3, §4, §5, §6, §7

[12] = tested on: Large crabgrass; assay: Soil treatment test for upland field; type: in vivo, Digitaria adscendens; details: 500 g/ha, glass house 25° C., 3 weeks
Method in brief: as §1

[13] = tested on: Large crabgrass; assay: Foliar spread test for upland field; type: in vivo, Digitaria adscendens; details: foliar spray 500 ppm, 3 weeks, rank vs non-treated
Method in brief: as §2

[14] = tested on: livid amaranth; assay: Foliar spread test for upland field; type: in vivo, Amaranthus lividus; details: foliar spray 500 ppm, 3 weeks, rank vs non-treated
Method in brief: as §2

[15] = tested on: wheat; assay: Foliar spread test for upland field; type: in vivo; details: foliar spray 500 ppm, 3 weeks, rank vs non-treated
Method in brief: (§8)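 Crops and weeds grown about 2 weeks in volcanic ash soil in a glasshouse, then sprayed with wettable-powder formulations diluted to 500 ppm in water with 0.5% surfactant. After 3 weeks at 25 °C, injury scored visually 0 (normal) to 5 (all killed).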

[16] = tested on: cotton; assay: Foliar spread test for upland field; type: in vivo; details: foliar spray 500 ppm, 3 weeks, rank vs non-treated
Method in brief: as §8

[17] = tested on: solgum; assay: Foliar spread test for upland field; type: in vivo; details: foliar spray 500 ppm, 3 weeks, rank vs non-treated
Method in brief: as §8

[18] = tested on: soybean; assay: Foliar spread test for upland field; type: in vivo; details: foliar spray 500 ppm, 3 weeks, rank vs non-treated
Method in brief: as §8

[19] = tested on: corn; assay: Foliar spread test for upland field; type: in vivo; details: foliar spray 500 ppm, 3 weeks, rank vs non-treated
Method in brief: as §8

[20] = tested on: sugar beat; assay: Foliar spread test for upland field; type: in vivo; details: foliar spray 500 ppm, 3 weeks, rank vs non-treated
Method in brief: as §8

[21] = tested on: wheat; assay: Soil treatment test for upland field; type: in vivo; details: 500 g/ha, glass house 25° C., 3 weeks
Method in brief: as §1

[22] = tested on: cotton; assay: Soil treatment test for upland field; type: in vivo; details: 500 g/ha, glass house 25° C., 3 weeks
Method in brief: as §1

[23] = tested on: solgum; assay: Soil treatment test for upland field; type: in vivo; details: 500 g/ha, glass house 25° C., 3 weeks
Method in brief: as §1

[24] = tested on: soybean; assay: Soil treatment test for upland field; type: in vivo; details: 500 g/ha, glass house 25° C., 3 weeks
Method in brief: as §1

[25] = tested on: corn; assay: Soil treatment test for upland field; type: in vivo; details: 500 g/ha, glass house 25° C., 3 weeks
Method in brief: as §1

[26] = tested on: sugar beat; assay: Soil treatment test for upland field; type: in vivo; details: 500 g/ha, glass house 25° C., 3 weeks
Method in brief: as §1

[27] = tested on: annual bluegrass; assay: Foliar spread test for upland field; type: in vivo, Poa annua; details: foliar spray 500 ppm, 3 weeks, rank vs non-treated
Method in brief: as §2

[28] = tested on: morning glory; assay: Foliar spread test for upland field; type: in vivo, Ipomoea spps.; details: foliar spray 500 ppm, 3 weeks, rank vs non-treated
Method in brief: as §2

[29] = tested on: green foxtail; assay: Soil treatment test for upland field; type: in vivo, Setaria viridis; details: 500 g/ha, glass house 25° C., 3 weeks
Method in brief: as §1

SMILES	Effects Annual bluegrass [1]	Effects Green foxtail [2]	Effects Common lambsquarters [3]	Effects Common lambsquarters [4]	Effects Livid amaranth [5]	Effects Blackgrass [7]	Effects Barnyardgrass [8]	Effects Blackgrass [9]	Effects Velvetleaf [10]	Effects Barnyardgrass [11]	Effects Large crabgrass [12]	Effects Large crabgrass [13]	Effects Livid amaranth [14]	Effects Wheat [15]	Effects Cotton [16]	Effects Solgum [17]	Effects Soybean [18]	Effects Corn [19]	Effects Sugar beat [20]	Effects Wheat [21]	other results
CCC(Oc1cccc(OC(F)(F)F)c1)c1nc2cc(Cl)ccc2o1 (stereo not shown) [Compound 447]	5	2	5	3	5	5	4	2	2	1	5	3	5	2	4	3	5	3	5	1	Effects Velvetleaf [6]: 2; Effects Cotton [22]: 0; Effects Solgum [23]: 1; Effects Soybean [24]: 0; Effects Corn [25]: 2; Effects Sugar beat [26]: 5; Effects Annual bluegrass [27]: 2; Effects Morning glory [28]: 5; Effects Green foxtail [29]: 5
CCC(Oc1ccc(F)c(C(F)(F)F)c1)c1nc2cc(I)ccc2o1 (stereo not shown) [Compound 171]	5	5	4	2	5	1	2	1	3	1	5	3	5	2	4	2	3	2	3	1	Effects Cotton [22]: 0; Effects Solgum [23]: 1; Effects Soybean [24]: 0; Effects Corn [25]: 0; Effects Sugar beat [26]: 5; Effects Annual bluegrass [27]: 3; Effects Morning glory [28]: 5; Effects Green foxtail [29]: 5
CCC(Oc1ccc(F)c(C(F)(F)F)c1)c1nc2ccc(C(F)(F)F)cc2o1 (stereo not shown) [Compound 93]	5	3	4	3	5	3	4	1	2	2	5	3	4	2	3	1	4	2	4	0	Effects Velvetleaf [6]: 2; Effects Cotton [22]: 1; Effects Solgum [23]: 1; Effects Soybean [24]: 2; Effects Corn [25]: 1; Effects Sugar beat [26]: 5; Effects Annual bluegrass [27]: 1; Effects Morning glory [28]: 3; Effects Green foxtail [29]: 5
CCCC(Oc1ccc(F)c(C(F)(F)F)c1)c1nc2ccc(C(F)(F)F)cc2o1 (stereo not shown) [Compound 101]	5	2	4	4	5	3	3	1	3	1	5	2	4	1	2	1	3	1	2	0	Effects Velvetleaf [6]: 2; Effects Cotton [22]: 0; Effects Solgum [23]: 1; Effects Soybean [24]: 0; Effects Corn [25]: 0; Effects Sugar beat [26]: 2; Effects Annual bluegrass [27]: 1; Effects Morning glory [28]: 3; Effects Green foxtail [29]: 5
